Patent US5869500A, “Pyridone compounds useful in treating Alzheimer's disease” (Hoffmann-La Roche Inc., priority 1996, dated 1999)
Where a name gives a salt, the structure may show the parent alone.

Experiments:
[1] = system: Aβ production in HEK cells over-expressing Wild type β-APP; assay: Aβ production inhibition, sandwich-ELISA in HEK cells which over-express Wild type β-APP (SE-WT); assay type: cell-based, human; settings: Homo sapiens; for IC50: HEK293, based on the respective plateau of maximum inhibition; for Emax: HEK293, maximum inhibition plateau, read-out: SE-WT max. inhibition %
Summary of the method: (§1)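 HEK cells expressing recombinant human wild-type or mutated (SFAD) β-APP treated with compound for 24 to 48 hours at 37° C, 10% CO2. IC50 based on plateau of maximum inhibition.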

[2] = system: Aβ production in HEK cells over-expressing mutated β-APP (SFAD); assay: Aβ production inhibition, sandwich-ELISA in HEK cells, over-expressed mutated β-APP (SE-SFAD); assay type: cell-based, human; settings: Homo sapiens, HEK293, HEK cells; for IC50: based on the respective plateau of maximum inhibition; for Emax: maximum inhibition plateau, read-out: SE-SFAD max. inhibition %
Summary of the method: as §1

Compound | IC50 [1] [µM] | Emax [1] [%] | IC50 [2] [µM] | Emax [2] [%]
CC(C)OC1CCN(C(=O)c2cc(-c3ccccc3)c(=O)n3ccc4ccsc4c23)C1 (stereo not shown) [Compound 51, 10-(3-Isopropoxy-pyrrolidine-1-carbonyl)-8-phenyl-thieno[2,3-a]-quinolizin-7-one] | 24 | 100 | 60 | 100
COC1CCN(C(=O)c2cc(-c3ccccc3)c(=O)n3ccc4ccc(Cl)cc4c23)C1 (stereo not shown) [Compound 41, 10-Chloro-1-(3-methoxy-pyrrolidine-1-carbonyl)-3-phenyl-pyrido [2,1-a]isoquinolin-4-one] | 3.5 | 75 | 6 | 100
CN(C)C(=O)COC(=O)c1cc(-c2ccccc2)c(=O)n2ccc3ccsc3c12 [Compound 30, Dimethyl-carbamoylmethyl 7-oxo-8-phenyl-7H-thieno[2,3-a]-quinolizine-10-carboxylate] | 5 | 60 | 5 | 25
COCC1CCCN1C(=O)c1cc(-c2ccccc2)c(=O)n2ccc3ccc(Cl)cc3c12 (stereo not shown) [Compound 37, 10-Chloro-1-(2-methoxymethyl-pyrrolidine-1-carbonyl)-3-phenyl-pyrido [2,1-a]isoquinolin-4-one] | 1 | 70 | 7 | 100
COC[C@H]1CCCN1C(=O)c1cc(-c2ccccc2)c(=O)n2ccc3ccc(Cl)cc3c12 [Compound 38, 10-Chloro-1-(2-(R)methoxymethyl-pyrrolidine-1-carbonyl)-3-phenyl-pyrido [2,1-a]isoquinolin-4-one] | 1.5 | 70 | 7 | 100
COCC1CC(OC)CN1C(=O)c1cc(-c2ccccc2)c(=O)n2ccc3ccsc3c12 (stereo not shown) [Compound 8, 10-(4-Methoxy-2-methoxymethyl-pyrrolidine-1-carbonyl)-8-phenylthieno[2,3-a]quinolizin-7-one] | 12 | 25 | 1 | 35
CN(C)CC=CCOC(=O)c1cc(-c2ccccc2)c(=O)n2ccc3ccsc3c12 [Compound 59, 4-Dimethylamino-but-2-enyl 7-oxo-8-phenyl-7H-thieno[2,3-a]-quinolizine-10-carboxylate methanesulphonate] | 7 | 100 | 5 | 100
CN(CC1CCCO1)C(=O)c1cc(-c2ccccc2)c(=O)n2ccc3ccsc3c12 (stereo not shown) [Compound 24, 7-Oxo-8-phenyl-7H-thieno[2,3-a]quinolizine-10-carboxylic acid methyl-(tetrahydrofuran-2-yl-methyl)-amide] | 10 | 60 | 7 | 40
COCCN(CCOC)C(=O)c1cc(-c2ccc(OCc3ccccc3)cc2)c(=O)n2ccc3ccsc3c12 [Compound 67, 8-(4-Benzyloxy-phenyl)-7-oxo-7H-thieno[2,3-a]quinolizine-10-carboxylic acid bis-(2-methoxy-ethyl)-amide] | 0.6 | 80 | 0.8 | 70
CN(C)CCOC(=O)c1cc(-c2ccccc2)c(=O)n2ccc3ccsc3c12 [Compound 53, 2-Dimethylamino-ethyl 7-oxo-8-phenyl-7H-thieno[2,3-a]quinolizine-10-carboxylate hydrochloride] | 8 | 100 | 9.5 | 80
